Test results taken from US10444227B2, “Neural networks formed from cells derived from pluripotent stem cells” (FUJIFILM Cellular Dynamics, Inc., priority 2014, dated 2019).
Entries after “also recorded” stand apart in the source; their conditions may differ.

Test system: iCell® DopaNeuron cultures
Assay: Excitability pharmacology on network bursting, multi-electrode array (MEA) recording
Format: cell-based, human
Conditions: FIG. 11
Text: The following methods may be used to culture neural cells on a Mestro Multielectrode Array (MEA). iCell® Neurons are thawed and plated into a 48-well MEA plate pre-coated with […] Polyethyleneimine (PEI; Sigma) solution. On day 1 post-plating, 100% of spent medium is replaced with Neurobasal-A medium (NBA; Life Technologies) +10% KnockOut Serum Replacement (KSR; Life Technologies). On day 5 post-plating, 50% of spent medium is replaced with NBA +10% KSR. On day 8 post-plating, baseline activity is recorded, cells are treated with compounds, and the activity is subsequently recorded.
Data analysis and acquisition may be performed using AxIS Software (Axion Integrated Studio, Axion BioSystems). At or after day 8 post-plating, the neuronal preparation may be suitable for data acquisition. Data acquisition can include a pre-application recording (baseline), a compound application recording, followed by a post-application recording (dose). Electrical activity may be acquired using the AxIS Software. The CDlneuronconfig.datastream file can ensure the appropriate data acquisition settings are loaded into the AxIS Software.
In these experiments, iCell® DopaNeurons, iCell® Neurons, and iCell® Astrocytes were obtained from Cellular Dynamics International, Inc. (Madison, Wis.), mixed and cultured on MEA plates as described in Example 1. Cells were cultured in BrainPhys media (Bardy et al., 2015) obtained from the Salk Institute (La Jolla, Calif.).
Two examples of excitability pharmacology, THIP (top) and L-655,708 (bottom), on iCell® DopaNeuron cultures are shown in FIG. 11. THIP activates tonic inhibition, while L-655,708 decreases tonic inhibition.

SMILES	'after-quiet' following network burst	continuous rumbling of activity	network burst intensity	network synchrony	post-bursting behaviors	post-burst rumbling time (duration of post-burst rumble)	time (duration) of the entire burst
CCOC(=O)c1ncn2c1[C@@H]1CCCN1C(=O)c1cc(OC)ccc1-2 [L-655,708]	abolished	inducing a continuous rumble of activity that dominated activity; also recorded: inducing a continuous rumbling of activity	neither pharmacological agent altered network burst intensity	de-synchronized the network	both altered post-bursting behaviors	–	–
Oc1noc2c1CCNC2 [THIP]	–	–	neither pharmacological agent altered network burst intensity	–	both altered post-bursting behaviors	shortened	shortened the time of the entire burst; also recorded: shortened the durations of the entire burst
